Experiments:
Type in all cases: cell-based
[1] = system: BON human pancreatic carcinoid cell lines; experiment: Inhibition of growth of BON pancreatic carcinoid cells, MUH fluorescence; details: 192 h, read-out: ED50 (inhibition of cell growth)
Description: The BON human pancreatic carcinoid cell lines are cultured in a DMEM/F12K (1/1) medium to which 10% FCS is added.

[2] = system: STC-1 mouse intestinal cancer cell lines; experiment: Growth of STC-1 carcinoid intestinal cells, cell counting or MUH fluorescence; details: STC-1, read-out: ED50 (cell growth)
Description: The STC-1 mouse intestinal cancer cell lines are cultured in a DMEM medium which contains 15% horse serum and 2.5% FCS. The products to be studied are added to the culture and cell growth is assessed by counting cells or, more frequently, by a fluorescence technique which is based on the cellular enzymic hydrolysis of the fluorogenic substrate 4-methylumbelliferyl heptanoate (MUH); thus, viable cells which are incubated with MUH generate a fluorescent signal which is proportional to their number and which is determined using a “Titentec Fluoroscan II” (Flow Laboratory), with the value being given in arbitrary fluorescence units.

[3] = system: LFC rat hepatocarcinoma cells; experiment: Inhibition of proliferation of LFC hepatocarcinoma cells, tritiated thymidine incorporation; details: concentrations of 0.1% and 1% by weight
Description: LFC rat hepatocarcinoma cells (VPR42, Villejuif) are cultured at the rate of 10^4 or 5×10^4 cells in a well containing 200 μl of culture medium.
Inhibition of cell proliferation is assessed using tritiated thymidine as described in Test 1. The assessment is made in comparison with the reference product, which is verapamil.

[4] = system: HT29 colon cancer cell line; experiment: Inhibition of proliferation of HT29 colon cancer cells, tritiated thymidine incorporation; details: Homo sapiens, HT-29, 15 h, read-out: % Inhibition of cell proliferation (3HThdR incorporation)
Description: The HT29 colon cancer cell line employed (originally isolated from an adenocarcinoma of the human colon) was obtained from the ATCC (American Type Culture Collection).
The cells are cultured at the rate of 10^4 or 5×10^4 cells in a well containing 200 μl of culture medium composed of RPMI […] supplemented with 10% fetal calf serum, 2 mM of L-glutamine and 25 μM gentamicin.

COc1ccc(CCN(C)CCCC(C#N)(c2ccc(OC)c(OC)c2)C(C)C)cc1OC (stereo not drawn) [verapamil]
EC50 [1]: 43.6 µM
EC50 [2]: 13 µM
percentage inhibition of proliferation [3]: 72%
inhibition at 0.025 % strength [4]: 17%
inhibition at 0.05 % strength [4]: 17%
inhibition at 0.1 % strength [4]: 27%

From US6500826B1, “Use of panaverium bromide for preventing cell proliferation and diseases caused thereby in the liver and digestive tract” (Solvay Pharma, priority 1996, dated 2002)
